The values that follow come from PubChem BioAssay (NCI).

Structures are written as SMILES.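 Where inhibition never reached the appropriate level, the endpoint shown equals the highest concentration tested. Otherwise, values were interpolated linearly from a five-concentration, 48-hour dose response in 96-well plates. Abbreviation: GI50, concentration required for 50% inhibition of growth. The concentration for full growth arrest is given as TGI.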

Common to all, as to experiment: NCI anticancer screen, dose series, 48 h
The test system of assay [1] is HOP-62 NSCLC.
For assay [2], the system named is SNB-19 CNS.
Assay [3] concerns NCI-H460 lung.
Assay [4] has as its system NCI/ADR-RES ovarian.
In assay [5] the test system is U251 CNS.
Assay [6] concerns KM12 colon.
In assay [7] the test system is SK-OV-3 ovarian.
The test system of assay [8] is HCC-2998 colon.
The test system of assay [9] is OVCAR-5 ovarian.
The test system of assay [10] is HOP-92 NSCLC.

In the case of `COc1cc(-c2cc(/C=C/C(=O)c3ccc(F)c(F)c3)[nH]n2)cc(OC)c1OC`, the GI50 was 4.39 µM in assay [1]; 3.64 µM in assay [2]; 2.96 µM in assay [3]; 3.46 µM in [4]; 2.9 µM in [5]; 3.06 µM in assay [6]. In addition, the GI50 in assay [7] is 3.53 µM; in assay [8], 3.69 µM; in [9], 4.49 µM. Moreover, the TGI in assay [1] is > 100 µM; in [2], > 100 µM; in assay [3], 8.24 µM; in assay [4] it was 50.5 µM; in assay [5], 15.7 µM; in [6] it was 11.4 µM. Besides, the results for the TGI in assay [7], in [8] and in assay [9] were 58.6 µM, 34.1 µM and 33.8 µM, respectively.

Consider `NC(N)=N/N=C/c1c(-c2ccsc2)nc2n1CCS2`, for which the GI50 in [1] was 19.8 µM; in assay [2], 26.9 µM; in assay [3] it was 27.9 µM; in [4], > 100 µM; in assay [5] it was 14.6 µM; in assay [6] it was 17.1 µM. Also, the GI50 is 35.4 µM in assay [7], 16 µM in [8] and 19.9 µM in assay [9]. Besides, the TGI in assay [1] is 52.8 µM; in assay [2], > 100 µM; in [3], > 100 µM; in [4], > 100 µM; in assay [5], 35.7 µM; in assay [6], 43.1 µM. The TGI in [7] is > 100 µM; in [8] it was 31.4 µM; in [9], 48.2 µM.

On to `CCN(CC)c1ccc(/C=C/C(=O)c2ccc(Nc3nc(Nc4ccccc4)nc(Nc4ccccc4)n3)cc2)cc1`, for which the GI50 is 2.55 µM in [1]; 41.3 µM in assay [2]; 2.55 µM in assay [3]; 4.3 µM in assay [4]; 4.82 µM in assay [5]; 1.42 µM in [6]. Further, the values for the GI50 in assay [7], in assay [9] and in assay [10] were 10.6 µM, 17.5 µM and 0.0316 µM, respectively. Further, the TGI in [1] was 28.1 µM; in assay [2] it was > 100 µM; in assay [3] it was 17.6 µM; in assay [4], > 100 µM; in [5], > 100 µM; in [6], 65.1 µM. The TGI in assay [7] was > 100 µM; in [9] it was > 100 µM; in assay [10] it was 4.84 µM.

Turning to `CCOC(=O)CSc1cc(Cl)c(C)cc1S(=O)(=O)/N=C(/N=C/c1ccc([N+](=O)[O-])s1)NNC`, the GI50 in assay [1] was 13.3 µM; in assay [2], 22.8 µM; in assay [3], 35.1 µM; in assay [4], 12.7 µM; in assay [5] it was 17 µM; in assay [6] it was 18.5 µM. The GI50 is 24.3 µM in assay [7], 6.02 µM in [9] and 13.2 µM in [10]. Also, the TGI was 31.3 µM in assay [1]; 80.1 µM in assay [2]; > 100 µM in assay [3]; 30.7 µM in assay [4]; 38.7 µM in [5]; 42.2 µM in [6]. Besides, the TGI turned out to be 67.1 µM in assay [7], 38.4 µM in assay [9] and 54.6 µM in [10].

As to `CCOC(=O)c1c(-c2ccccc2)[n+](=O)c2cc(Cl)c(Cl)cc2n1[O-]`, the GI50 in assay [1] is 4.06 µM; in assay [2], 17.7 µM; in assay [3], 18.9 µM; in [4], 18 µM; in assay [5], 2.33 µM; in assay [6] it was 1.31 µM. The GI50 is 18.5 µM in assay [7], 22 µM in [9] and 2.09 µM in [10]. Also, the TGI in assay [1] is 18.9 µM; in assay [2] it was 35.1 µM; in assay [3], 46.7 µM; in [4] it was 44.7 µM; in assay [5], 6.01 µM; in assay [6], 2.77 µM. Also, the values for the TGI in assay [7], in assay [9] and in assay [10] were 33.6 µM, 47.7 µM and 4.6 µM, respectively.

Regarding `CCOCC1(COCC)CCC(c2[nH]ncc2CN(C)CCNC)CC1`, the GI50 in assay [1], in assay [2], in [3], in [4], in assay [5] and in [6] was > 100 µM each time. Besides, the GI50 in [7], in assay [8] and in [9] was > 100 µM in each case. Moreover, the TGI in assay [1], in assay [2], in assay [3], in assay [4], in assay [5] and in assay [6] was > 100 µM throughout. Moreover, the TGI in assay [7], in assay [8] and in [9] was > 100 µM each time.
